Results reported in article PMC9027111, “Morphing Natural Product Platensimycin via Heck, Sonogashira, and One-Pot Sonogashira/Cycloaddition Reactions to Produce Antibiotics with In Vivo Activity” (Antibiotics, 2022).
Values after ≈ are worked out from the molar mass of the structure shown. Read-outs that look alike come from different tables or passages of the source.

What was measured:
[1] = Stability of A4 in LB agar; assay type: physicochemical; settings: 8 μg mL−1 in LB agar, 37 °C, 16 h, UPLC
Procedure: Figure S44. Analysis of the stability of A4 from LB agar. Compound A4 (0.1 mg mL−1)
were diluted in 5 mL of LB agar (1.5% v/v) to 8 μg mL−1, and the LB agar plates were
then incubated at 37 °C for 16 h. The LB agar containing A4 was extracted by DCM (3 ×
10 mL), dried with anhydrous Na2SO4 and concentrated in vacuum. The resulting
extracts were analysed by Ultra-Performance Liquid Chromatography.
(1 picture or pasted object on this page, not shown here)

S. aureus ATCC 29213 = assay: MIC determination (LB agar dilution), S. aureus ATCC 29213; assay type: cell-based; settings: Staphylococcus aureus, ATCC29213, at least two replicates
Procedure: (§1) All of the tested compounds were prepared to different concentrations with methanol, and 150 μL of the respective methanol solution was used to mix with 15 mL LB (Luria–Bertani) medium with 1% agar in each Petri dish. Linezolid and PTM were used as reference compounds for comparison. In vitro bioassay for compounds was carried out using clinical strains of S. aureus, E. coli, and Klebsilla pneumoniae. The bacteria were cultivated in LB medium and incubated for 16 h at 37 °C, 250 rpm. The resulting bacteria were diluted to approximate 0.25 at OD600, which were further diluted 10_4-fold. The diluted bacteria (2 μL) were added to Petri dish containing the respective compounds. The resulting Petri dishes were incubated for 16 h at 37 °C. The determination of MIC is the concentration of Petri dishes with no visible growth of bacteria.

[2] = Plasma protein binding by equilibrium dialysis; assay type: in vitro ADME; settings: 37 °C
Procedure: Equilibrium dialysis was used to determine the plasma protein binding. All of the test compounds were treated in triplicate by RED Rapid Equilibrium Dialysis Device (Thermo Scientific, Waltham, MA, USA). In brief, the initial compound concentration (5 μM) in the plasma chamber was first set, followed by the addition of phosphate buffered saline (PBS) to the receiver chamber. The Equilibrium Dialysis Device was allowed to shake for 6 h in a 37 °C incubator. Then, 25 μL solution was sampled from the plasma and PBS chambers, respectively, and they were diluted with either blank PBS or plasma to achieve a 1:1 ratio of plasma: PBS for all samples. The concentrations of the tested compounds in the plasma and PBS chambers were determined by LC–MS/MS. The fraction bound was calculated as ([plasma]—[PBS])/[plasma].

MSSA 2 = assay: MIC determination (LB agar dilution), clinical MSSA strain 2; assay type: cell-based; settings: Staphylococcus aureus, at least two replicates
Procedure: as §1

MRSA [3] = assay: Mouse skin infection with MRSA; assay type: in vivo, BABL/c mice
Procedure: Mouse MRSA skin infection study was performed as described before. Female BABL/c mice (20–22 g, 7-weeks old) were anesthetized by intraperitoneal injection of 4% chloral hydrate (200 μL), and the hair of mice back surface was removed and washed with povidone iodine–propanol solution. A gauze (15 × 15 mm) was preheated in boiling water (90 °C) for 10 min, and then placed on the back of each mouse for 40 s to generate the burns. Next, the burn was bound with sterile gauze and infected with 1 × 10^8 colony-forming units (CFU) of MRSA. An open wound was witnessed at the burns after 48 h post infection. The infected mice were then divided into three groups (5 per group). A4 (200 μg) was formulated into 2% ointment consisting of 1.4% carbomer, 1.4% triethanolamine, 14% propanediol, 14% glycerinum, and 1% azone. Mupirocin (2% w/w) were used as the positive control, while vehicle used as negative control. All mice were treated twice a day for 7 days. Mice were euthanized after 24 h of the last treatment, and the wound area was slightly swabbed with 70% ethanol. Wound area (1 cm^2) was excised, homogenized, and plated onto TSB agar plates to count viable bacteria. Other skin biopsy specimens removed from the wounds were stored at 4% paraformaldehyde solution to be used for hematoxylin and eosin (HE) staining.

MRSA 4 = assay: MIC determination (LB agar dilution), clinical MRSA strain 4; assay type: cell-based; settings: Staphylococcus aureus, at least two replicates
Procedure: as §1

MRSA 3 = assay: MIC determination (LB agar dilution), clinical MRSA strain 3; assay type: cell-based; settings: Staphylococcus aureus, at least two replicates
Procedure: as §1

MRSA [4] = assay type: in vivo; settings: for survival rate of the infected mice: 7 days; for survival of infected mice: tracked 7 days, n = 5
MSSA 1 = assay: MIC determination (LB agar dilution), clinical MSSA strain 1; assay type: cell-based; settings: Staphylococcus aureus, at least two replicates
Procedure: as §1

[5] = Metabolic stability assay in pooled human liver microsomes; assay type: in vitro ADME; settings: pH 7.4, 37 °C, NADPH, read-out: Half-Life in Human Hepatic Microsomes
Procedure: Each compound was incubated in duplicate with pooled human liver microsomes at 37 °C. The tested compounds were pre-incubated with pooled human liver microsomes in phosphate buffer (pH 7.4) for 5 min in a shaking water bath at 37 °C. The reaction was initiated by adding a NADPH-generating system and incubated for 0, 15, 30, 45, and 60 min. The reaction was stopped by transferring the incubation mixture to CH3CN/MeOH. Samples were then mixed and centrifuged. Supernatants were used for HPLC–MS/MS analysis. Data were calculated as percent parent compounds remaining by assuming zero-minute time point peak area ratio (analyte/IS) as 100% and dividing remaining time point peak area ratios by the zero-minute time point peak area ratio. Data were subjected to fit a first-order decay model to calculate both the slope and half-life.

SMILES: CC(C)(C)OC(=O)C=CC1=CC23CC4CC(OC4(C)C2)C3C(C)(CCC(=O)Nc2c(O)ccc(C(=O)O)c2O)C1=O (stereo not drawn) [A4]
- stability in LB agar [1]: relatively stable
- MIC (S. aureus ATCC 29213): 1 µg/mL (≈ 1.76 µM)
- Plasma Protein Binding Bound % ([2]; 5 μM, 6 h): 98.3%
- fraction unbound at 6 h, 5 μM ([2]; plasma, read-out: Plasma Protein Binding Free %): 0.017
- MIC (MSSA 2): 1 µg/mL (≈ 1.76 µM)
- reduction of MRSA on the skin compared to untreated mice (MRSA [3]; 2 mg topical twice a day for 7 days): ~ 790 fold
- load of S. aureus on treated skin (MRSA [3]; 2 mg topical twice a day for 7 days, n = 5/group): (1.0 ± 0.3) × 10^6 CFU/g
- healing of the infected skin (MRSA [3]; topical twice a day for 7 days, observation and H&E staining): showed the healing of the skin
- MIC (MRSA 4): 1 µg/mL (≈ 1.76 µM)
- MIC (MRSA 3): 1 µg/mL (≈ 1.76 µM)
- survival rate of the infected mice (MRSA [4]; 5 mg/kg intraperitoneal at 1 h and 5 h after infection): 60%
- survival of infected mice (MRSA [4]; 10 mg/kg intraperitoneal at 1 h and 5 h after infection): 60%
- survival rate of the infected mice (MRSA [4]; 20 mg/kg intraperitoneal at 1 h and 5 h after infection): 80%
- survival rate of the infected mice (MRSA [4]; 30 mg/kg intraperitoneal at 1 h and 5 h after infection): 60%
- survival of infected mice (MRSA [4]; 50 mg/kg intraperitoneal at 1 h and 5 h after infection): 20%
- survival of infected mice after oral administration (MRSA [4]; 30 and 50 mg/kg by oral gavage): most of the treated mice survived within 48 h
- MIC (MSSA 1): 1 µg/mL (≈ 1.76 µM)
- half-life [5]: 26 min
